Active and inactive are the calls of the source. No cut-off for these calls is given here.
Experiments:
[1] = Plasma concentration in Sprague-Dawley rat assessed as fasudil level at 14.4 mg/kg, po measured at 2 hrs by LC-MS/MS analysis; format: ADME, organism-based; conditions: in vivo
[2] = Cardiotoxicity in Sprague-Dawley rat assessed as effect on cross-sectional area of cardiomyocyte at 43.3 mg/kg, po administered daily for 2 weeks by hematoxylin and eosin staining-based microscopic analysis (reference value: 209.53 +/- 26.44 micrometer2); format: toxicity, organism-based; conditions: in vivo, 336 h
Rattus norvegicus [3] = experiment: (§1) Anti-hypersensitive activity in MCT-induced pulmonary arterial hypertension Sprague-Dawley rat model assessed as mean pulmonary artery pressure at 43.3 mg/kg, po administered daily for 14 days starting from 14 days post-MCT challenge and measured post-last dose by pressure transducer-coupled polygraphy (reference value: 36 +/- 2.83 mmHg); format: functional
Rattus norvegicus [4] = experiment: (§2) Anti-hypersensitive activity in MCT-induced pulmonary arterial hypertension Sprague-Dawley rat model assessed as reduction in cardiomyocyte hypertrophy by measuring cardiac fibrosis at 43.3 mg/kg, po administered daily for 14 days starting from 14 days post-MCT challenge and measured post-last dose by Masson's trichrome staining-based microscopic analysis (reference value: 11.74 +/- 3.24 %); format: functional; set-up: scale not given: the % may be the effect or the level left
Rattus norvegicus [5] = experiment: as §1, with “right ventricular systolic” for “mean pulmonary artery”, “59.06” for “36”, “3.26” for “2.83”; format: functional
[6] = Plasma concentration in Sprague-Dawley rat assessed as fasudil level at 14.4 mg/kg, po measured at 1 hr by LC-MS/MS analysis; format: ADME, organism-based; conditions: in vivo
Rattus norvegicus [7] = experiment: Anti-hypersensitive activity in MCT-induced pulmonary arterial hypertension Sprague-Dawley rat model assessed as pulmonary artery medial thickness at 43.3 mg/kg, po administered daily for 14 days starting from 14 days post-MCT challenge and measured post-last dose by hematoxylin and eosin staining-based microscopic analysis (reference value: […] +/- […]); format: functional
[8] = MRT in Sprague-Dawley rat at 14.4 mg/kg, po by LC-MS/MS analysis; format: ADME, organism-based; conditions: in vivo
[9] = AUC (0 to infinity) in Sprague-Dawley rat at 14.4 mg/kg, po by LC-MS/MS analysis; format: ADME, organism-based; set-up: dose 14.4 mg/kg, time infinity, route oral; conditions: in vivo
Rattus norvegicus [10] = experiment: as §2, with “cross-sectional area of cardiomyocyte” for “cardiac fibrosis”, “hematoxylin and eosin” for “Masson's trichrome”, “418” for “11.74”, “50.88 micrometer2)” for “3.24 %)”; format: functional
[11] = AUC (0 to t) in Sprague-Dawley rat at 14.4 mg/kg, po by LC-MS/MS analysis; format: ADME, organism-based; conditions: in vivo
[12] = Elimination rate constant in Sprague-Dawley rat at 14.4 mg/kg, po by LC-MS/MS analysis; format: ADME, organism-based; conditions: in vivo
[13] = AUMC (0 to infinity) in Sprague-Dawley rat at 14.4 mg/kg, po by LC-MS/MS analysis; format: ADME, organism-based; conditions: in vivo
[14] = Tmax in Sprague-Dawley rat at 14.4 mg/kg, po by LC-MS/MS analysis; format: ADME, organism-based; conditions: in vivo
Rattus norvegicus [15] = experiment: Hemodynamic activity in Sprague-Dawley rat assessed as effect on mean systemic arterial pressure at 43.3 mg/kg, po administered daily for 2 weeks by pressure transducer-coupled polygraphy; format: ADME, organism-based; conditions: in vivo, 336 h
[16] = Plasma concentration in Sprague-Dawley rat assessed as fasudil level at 14.4 mg/kg, po measured at 4 hrs by LC-MS/MS analysis; format: ADME, organism-based; conditions: in vivo
[17] = Cardiotoxicity in Sprague-Dawley rat assessed as cardiac fibrosis at 43.3 mg/kg, po administered daily for 2 weeks by hematoxylin and eosin staining-based microscopic analysis (reference value: 2.99 +/- 1.34 %); format: toxicity, organism-based; conditions: in vivo, 336 h
[18] = Plasma concentration in Sprague-Dawley rat assessed as fasudil level at 14.4 mg/kg, po measured at 0.5 hrs by LC-MS/MS analysis; format: ADME, organism-based; conditions: in vivo
[19] = Cmax in Sprague-Dawley rat at 14.4 mg/kg, po by LC-MS/MS analysis; format: ADME, organism-based; set-up: dose 14.4 mg/kg, route oral; conditions: in vivo
Rattus norvegicus [20] = experiment: Hemodynamic activity in Sprague-Dawley rat assessed as effect on mean pulmonary artery pressure at 43.3 mg/kg, po administered daily for 2 weeks by pressure transducer-coupled polygraphy; format: ADME, organism-based; conditions: in vivo, 336 h
Rattus norvegicus [21] = experiment: Hemodynamic activity in Sprague-Dawley rat assessed as effect on right ventricular systolic pressure at 43.3 mg/kg, po administered daily for 2 weeks by pressure transducer-coupled polygraphy; format: ADME, organism-based; conditions: in vivo, 336 h
Rattus norvegicus [22] = experiment: Hemodynamic activity in Sprague-Dawley rat assessed as effect on right ventricular hypertrophy index at 43.3 mg/kg, po administered daily for 2 weeks by pressure transducer-coupled polygraphy; format: ADME, organism-based; conditions: in vivo, 336 h
Rattus norvegicus [23] = experiment: as §2, with “lung” for “reduction in cardiomyocyte hypertrophy by measuring cardiac”, “6.12” for “11.74”, “1.66%)” for “3.24 %)”; format: functional
[24] = AUMC (0 to t) in Sprague-Dawley rat at 14.4 mg/kg, po by LC-MS/MS analysis; format: ADME, organism-based; conditions: in vivo
[25] = Plasma concentration in Sprague-Dawley rat assessed as fasudil level at 14.4 mg/kg, po measured at 0.25 hrs by LC-MS/MS analysis; format: ADME, organism-based; conditions: in vivo
Rattus norvegicus [26] = experiment: Reversal of MCT-induced Sprague-Dawley rat model of elastic fiber hyperplasia at 43.3 mg/kg, po administered daily for 14 days starting from 14 days post-MCT challenge and measured post-last dose by elastic fibres staining-based microscopic analysis; format: functional, organism-based

`O=C(O)C(Cl)Cl.O=S(=O)(c1cccc2cnccc12)N1CCCNCC1` showed a Cp [1] of 18.4 ng/mL, an Activity [2] of 190.6 um2 and an Activity (Rattus norvegicus [3]) of 25.67 mmHg. It also gave an Activity (Rattus norvegicus [4]) of 3.69%, an Activity (Rattus norvegicus [5]) of 49.54 mmHg and a Cp [6] of 38 ng/mL. It also gave an Activity (Rattus norvegicus [7]) of 0.2, an MRT [8] of 77.4 min and an AUC(0-inf) [9] of 117 ng·h/mL. For the same molecule, the Activity (Rattus norvegicus [10]) was 282.4 um2, the AUC(0-t) [11] was 109 ng·h/mL and the k el [12] was 0.000219 s⁻¹. For the same molecule, the AUMC [13] was 160 hr.hr.ng/ml, the Tmax [14] was 15 min and the Activity (Rattus norvegicus [15]) was “Non-Toxic”. The Cp [16] was 4.46 ng/mL, the Activity [17] was 2.25% and the Cp [18] was 55.5 ng/mL. For the same molecule, the Cmax [19] was 113 ng/mL, the Activity (Rattus norvegicus [20]) was “Non-Toxic” and the Activity (Rattus norvegicus [21]) was “Non-Toxic”. The Activity (Rattus norvegicus [22]) was “Non-Toxic”, the Activity (Rattus norvegicus [23]) was 6.12% and the AUMCt [24] was 119 hr.hr.ng/ml. For the same molecule, the Cp [25] was 113 ng/mL.
For `O=S(=O)(c1cccc2cnccc12)N1CCCNCC1`, the Activity (Rattus norvegicus [26]) was “Active”.
